Reference: article PMC3401038 (ACS Chemical Biology, 2012)

Columns and labels:
[1] = system: M. tuberculosis H37Rv; type: cell-based, Mycobacterium tuberculosis; details: hypoxic shift down M. tuberculosis H37Rv, result in words
[2] = system: M. tuberculosis H37Rv; type: cell-based, Mycobacterium tuberculosis; details: hypoxic shift down M. tuberculosis, 5 days treatment, result in words
[3] = system: M. bovis BCGMtbNar; type: cell-based, Mycobacterium bovis BCG

O=[N+]([O-])c1cn2c(n1)OC[C@@H](OCc1ccc(OC(F)(F)F)cc1)C2 [PA-824]
effect on ATP levels [1]: reduction in ATP levels
bacterial viability (CFU) [2]: reduction in bacterial viability

COc1nc2ccc(Br)cc2cc1[C@@H](c1ccccc1)[C@@](O)(CCN(C)C)c1cccc2ccccc12 [TMC207]
effect on ATP levels [1]: reduction in ATP levels
effect on ATP pool / intracellular ATP levels [3]: significantly reduce the ATP pool
bacterial viability (CFU) [2]: reduction in bacterial viability

Cc1ncc([N+](=O)[O-])n1CCO [metronidazole]
effect on ATP pool / intracellular ATP levels [3]: not affected
